{"source": "patent US5446026A", "about": "“Potent non-opiate analgesic” (Advanced Peptides & Biotechnology Sciences, priority 1993, dated 1995)", "key": {"[1]": {"settings": "periaqueductal gray administration; cited from earlier work"}, "[2]": {"assay": "analgesia after subcutaneous injection (tail-flick and hot plate tests)", "assay_type": "in vivo, rodent"}, "[3]": {"test_system": "bone", "assay": "uptake of calcium into bone", "settings": "under the conditions tested", "text": "(§1) Studies of analgesia in monkeys is underway and following animal toxicity human trials should be undertaken. […] We would expect that this peptide, like other peptide analogs of naturally occurring modulatory substances, would be potent in quite low (milligram) doses in humans and should be able to alleviate quite severe pain even in these low doses. [drawing 1] R1, R2 =OH: Cholic Acid 89.010a R1 =H, R2 =OH: Chenodeoxycholic Acid 89.010b R1 =OH, R2 =H: Deoxycholic Acid [drawing 2] PEPTIDE-Pro-Arg-Thr-Asn-Thr-Gly-Ser-Gly-Thr-Pro-amide."}, "[4]": {"settings": "rats; cited from earlier work"}, "[5]": {"settings": "cited from earlier work"}, "[6]": {"molecular_target": "T1, 69 Kd receptor molecule (calcitonin receptor) (Homo sapiens, UniProt P30988)", "T1 sequence (P30988 25-474)": "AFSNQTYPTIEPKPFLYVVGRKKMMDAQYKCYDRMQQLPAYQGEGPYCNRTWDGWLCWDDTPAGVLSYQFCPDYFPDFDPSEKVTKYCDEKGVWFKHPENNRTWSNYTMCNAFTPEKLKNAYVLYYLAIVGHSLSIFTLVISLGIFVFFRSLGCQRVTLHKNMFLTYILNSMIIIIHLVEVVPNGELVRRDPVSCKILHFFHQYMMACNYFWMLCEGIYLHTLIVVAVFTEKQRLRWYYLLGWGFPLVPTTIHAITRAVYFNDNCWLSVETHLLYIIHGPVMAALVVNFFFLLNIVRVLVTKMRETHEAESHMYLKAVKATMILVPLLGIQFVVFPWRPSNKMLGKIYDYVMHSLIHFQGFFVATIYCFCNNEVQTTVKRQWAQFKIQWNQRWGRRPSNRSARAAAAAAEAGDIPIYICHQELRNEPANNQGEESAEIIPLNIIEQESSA", "assay": "crosslinking / SDS-PAGE in vitro receptor binding"}, "[7]": {"assay": "observation of rodent behavior, righting reflex, inclined plane", "assay_type": "in vivo", "text": "as §1"}, "[8]": {"molecular_target": "T2, calcitonin receptor (Homo sapiens, UniProt P30988)", "T2 sequence (P30988 25-474)": "T1 sequence (P30988 25-474)", "assay": "in vitro receptor binding, displacement of 125-I calcitonin"}, "[9]": {"assay": "three classical tests of rodent analgesia (hot plate, paw pressure, tail flick)", "assay_type": "in vivo", "settings": "paw pressure and tail flick tests (FIG. 4)"}}, "note": "Like-named read-outs stand apart in the source and are kept apart here. No end group written: not given here."}
{"molecule": "CC(C)C[C@H](NC(=O)[C@H](Cc1ccccc1)NC(=O)CNC(=O)CNC(=O)[C@@H](N)Cc1ccc(O)cc1)C(=O)O", "note": "[enkephalin]", "values": [{"measurement": "analgesia", "setting": "[1]", "value": "weak and transient"}]}
{"molecule": "CN1CC[C@]23c4c5ccc(O)c4O[C@H]2[C@@H](O)C=C[C@H]3[C@H]1C5", "note": "[morphine, reference compound]", "values": [{"measurement": "analgesia at two hours, the last time point tested", "setting": "[2]", "value": "has already returned to baseline"}]}
{"molecule": "CC(C)C[C@H](NC(=O)[C@H](CCCCN)NC(=O)CNC(=O)[C@H](CC(C)C)NC(=O)[C@@H](NC(=O)[C@@H]1CSSC[C@H](N)C(=O)N[C@@H](CO)C(=O)N[C@@H](CC(N)=O)C(=O)N[C@@H](CC(C)C)C(=O)N[C@@H](CO)C(=O)N[C@@H]([C@@H](C)O)C(=O)N1)C(C)C)C(=O)N[C@@H](CO)C(=O)N[C@@H](CCC(N)=O)C(=O)N[C@@H](CCC(=O)O)C(=O)N[C@@H](CC(C)C)C(=O)N[C@@H](Cc1c[nH]cn1)C(=O)N[C@@H](CCCCN)C(=O)N[C@@H](CC(C)C)C(=O)N[C@@H](CCC(N)=O)C(=O)N[C@H](C(=O)N[C@@H](Cc1ccc(O)cc1)C(=O)N1CCC[C@H]1C(=O)N[C@@H](CCCNC(=N)N)C(=O)N[C@H](C(=O)N[C@@H](CC(N)=O)C(=O)N[C@H](C(=O)NCC(=O)N[C@@H](CO)C(=O)NCC(=O)N[C@H](C(=O)N1CCC[C@H]1C(N)=O)[C@@H](C)O)[C@@H](C)O)[C@@H](C)O)[C@@H](C)O", "note": "[salmon calcitonin, reference compound]", "values": [{"measurement": "uptake of calcium into bone", "setting": "[3]", "value": "profound response"}]}
{"molecule": "Calcitonin", "values": [{"measurement": "analgesic activity", "setting": "[4]", "value": "extremely potent analgesic"}, {"measurement": "penetration into the brain", "setting": "[5]; human, in vivo", "value": "does not penetrate into the brain"}, {"measurement": "side effects", "setting": "[5]; human, in vivo", "value": "No important side effects"}, {"measurement": "analgesic activity", "setting": "[5]; terminal cancer patients, injection into the subarachnoid space", "value": "extremely potent analgesic"}]}
{"molecule": "Pro-Arg-Thr-Asn-Thr-Gly-Ser-Gly-Thr-Pro-NH2 (PRTNTGSGTP-NH2) [PD89.010b, modified calcitonin decapeptide]", "values": [{"measurement": "displacement of iodinated salmon calcitonin from the 69 Kd receptor molecule", "setting": "[6]; at 1 μM (FIG. 3A)", "value": "completely displaces"}, {"measurement": "displacement of iodinated human calcitonin from the 69 Kd receptor molecule", "setting": "[6]; at 1 μM (FIG. 3B)", "value": "completely displaces"}, {"measurement": "uptake of calcium into bone", "setting": "[3]", "value": "does not appear to enhance"}, {"measurement": "onset of analgesia compared with morphine", "setting": "[2]", "value": "much more rapid onset of analgesia"}, {"measurement": "analgesia, tail-flick test", "setting": "[2]; one quarter the molar equivalent of morphine (FIG. 5A)", "value": "profound and long lived analgesia"}, {"measurement": "analgesia, hot plate test", "setting": "[2]; one quarter the molar equivalent of morphine (FIG. 5B)", "value": "profound and long lived analgesia"}, {"measurement": "analgesia at two hours, the last time point tested", "setting": "[2]", "value": "still is showing significant analgesia"}, {"measurement": "behavior and balance on an inclined plane", "setting": "[7]; in vivo", "value": "remained unchanged"}, {"measurement": "righting reflex", "setting": "[7]; in vivo", "value": "remained unchanged"}, {"measurement": "behavioral incapacitation effects", "setting": "[7]; trained observers of rodent behavior", "value": "no obvious behavioral incapacitation effects"}, {"measurement": "in vitro receptor binding as human calcitonin analog", "setting": "[8]; displacement of 125-I human calcitonin (FIG. 2A)", "value": "potent"}, {"measurement": "in vitro receptor binding as salmon calcitonin analog", "setting": "[8]; displacement of 125I salmon calcitonin (FIG. 2B)", "value": "weak"}, {"measurement": "analgesic responses", "setting": "[9]", "value": "significant and profound analgesic responses"}]}
